Measurements published in US5073493A, “Monoclonal antibody NKY13” (Ikuo Yamashina, priority 1987, dated 1991).

Columns and labels:
[1] = target: binding of the NKY13 to G-50I; assay: Inhibition of the binding of NKY13 to G-50I by sugar chains; design: species or system mouse; conditions: inhibition of binding of NKY13 to G-50I by the sugar chain
Procedure: Bovine serum albumin (1%) is added to wells of poly(vinyl chloride) on which, through the mediation of polylysine and glutaraldehyde, is immobilized mucin-type glycopeptide (G-50I) that is isolated from human intestinal cancer cells SW1116 or LS180. After allowing it to stand for 1 hr, the wells are washed, and then a monoclonal antibody NKY13 is added thereto and allowed to react overnight. After washing the wells, Protein A labelled with ^125 I is added, which is allowed to react for 2 hr. After washing the wells, the affinity of NKY13 is measured, taking as index the radioactivity of ^125 I combined with the well.
(§1) Structure of sugar chains recognized by monoclonal antibody NKY13 was investigated on the basis of the inhibition of the binding of the NKY13 to G-50I by the following sugar chains according to the above method. The same test was performed on NS19-9.

[2] = target: NS19-9; assay: Inhibition of NS19-9 binding by sugar chains (same test performed on NS19-9); conditions: read-out: 50% INHIBITION (μM) NS19-9
Procedure: as §1

IC50 [1] [µM]	IC50 [2] [µM]	Structure (SMILES)
9000	> 10000	O=C(CO)N[C@H]1[C@H]([C@H](O)[C@H](O)CO)OC(O)(C(=O)O)C[C@@H]1O (stereo partly shown) [NeuGc]
> 10000	> 10000	CC(=O)N[C@H]1[C@H](O[C@H]2[C@@H](O)[C@@H](CO)O[C@@H](O[C@H]3[C@H](O)[C@@H](O)C(O)O[C@@H]3CO)[C@@H]2O)O[C@H](CO)[C@@H](O)[C@@H]1O[C@@H]1O[C@H](CO)[C@H](O)[C@H](O)[C@H]1O (stereo partly shown)
> 10000	2320	CC(=O)N[C@H]1[C@H](O[C@H]2[C@@H](O)[C@@H](CO)O[C@@H](O[C@H]3[C@H](O)[C@@H](O)C(O)O[C@@H]3CO)[C@@H]2O)O[C@H](CO)[C@@H](O[C@@H]2O[C@@H](C)[C@@H](O)[C@@H](O)[C@@H]2O)[C@@H]1O[C@@H]1O[C@H](CO)[C@H](O)[C@H](O)[C@H]1O (stereo partly shown)
9000	> 10000	CC(=O)N[C@H]1[C@H]([C@H](O)[C@H](O)CO)OC(O)(C(=O)O)C[C@@H]1O (stereo partly shown) [NeuAc]
> 10000	> 10000	CC(=O)N[C@H]1[C@H](O[C@H]2[C@@H](O)[C@@H](CO)O[C@@H](O[C@H]3[C@H](O)[C@@H](O)C(O)O[C@@H]3CO)[C@@H]2O)O[C@H](CO)[C@@H](O[C@@H]2O[C@H](CO)[C@H](O)[C@H](O)[C@H]2O)[C@@H]1O[C@@H]1O[C@@H](C)[C@@H](O)[C@@H](O)[C@@H]1O (stereo partly shown)
> 10000	> 10000	CC(=O)N[C@H]1[C@H](O[C@H]2[C@@H](O)[C@@H](CO)O[C@@H](O[C@H]3[C@H](O)[C@@H](O)C(O)O[C@@H]3CO)[C@@H]2O)O[C@H](CO)[C@@H](O[C@@H]2O[C@@H](C)[C@@H](O)[C@@H](O)[C@@H]2O)[C@@H]1O[C@@H]1O[C@H](CO)[C@H](O)[C@H](O)[C@H]1O[C@@H]1O[C@@H](C)[C@@H](O)[C@@H](O)[C@@H]1O (stereo partly shown)
> 10000	14000	C[C@@H]1OC(O)[C@@H](O)[C@H](O)[C@@H]1O (stereo partly drawn) [L-Fucose]
1.86	11.1	CC(=O)N[C@H]1[C@H](O[C@H]2[C@@H](O)[C@@H](CO)O[C@@H](O[C@H]3[C@H](O)[C@@H](O)C(O)O[C@@H]3CO)[C@@H]2O)O[C@H](CO)[C@@H](O[C@@H]2O[C@@H](C)[C@@H](O)[C@@H](O)[C@@H]2O)[C@@H]1O[C@@H]1O[C@H](CO)[C@H](O)[C@H](O[C@]2(C(=O)O)C[C@H](O)[C@@H](NC(C)=O)[C@H]([C@H](O)[C@H](O)CO)O2)[C@H]1O (stereo partly shown)
320	3550	CC(=O)N[C@H]1[C@H](O[C@H]2[C@@H](O)[C@@H](CO)O[C@@H](O[C@H]3[C@H](O)[C@@H](O)C(O)O[C@@H]3CO)[C@@H]2O)O[C@H](CO)[C@@H](O)[C@@H]1O[C@@H]1O[C@H](CO)[C@H](O)[C@H](O[C@]2(C(=O)O)C[C@H](O)[C@@H](NC(C)=O)[C@H]([C@H](O)[C@H](O)CO)O2)[C@H]1O (stereo partly shown)
320	3550	CC(=O)N[C@H]1[C@H](O[C@H]2[C@@H](O)[C@@H](CO)O[C@@H](O[C@H]3[C@H](O)[C@@H](O)C(O)O[C@@H]3CO)[C@@H]2O)O[C@H](CO[C@]2(C(=O)O)C[C@H](O)[C@@H](NC(C)=O)[C@H]([C@H](O)[C@H](O)CO)O2)[C@@H](O)[C@@H]1O[C@@H]1O[C@H](CO)[C@H](O)[C@H](O[C@]2(C(=O)O)C[C@H](O)[C@@H](NC(C)=O)[C@H]([C@H](O)[C@H](O)CO)O2)[C@H]1O (stereo partly shown)
> 10000	> 10000	CC(=O)N[C@H]1[C@H](O[C@H]2[C@@H](O)[C@@H](CO)O[C@@H](O[C@H]3[C@H](O)[C@@H](O)C(O)O[C@@H]3CO)[C@@H]2O)O[C@H](CO[C@]2(C(=O)O)C[C@H](O)[C@@H](NC(C)=O)[C@H]([C@H](O)[C@H](O)CO)O2)[C@@H](O)[C@@H]1O[C@@H]1O[C@H](CO)[C@H](O)[C@H](O)[C@H]1O (stereo partly shown)
